Results published in US7582646B2, “Pyrimidine derivatives for treatment of hyperproliferative disorders” (Bayer Pharmaceuticals Corporation, priority 2003, dated 2009).
Counter-ions that a name gives are not always drawn. Like-named read-outs stand apart in the source and are kept apart here.

What was measured:
HCT116 cells [1] = experiment: HCT116 cytotoxic activity assay (Alamar Blue, 72 h); settings: Homo sapiens, HCT-116, read-out: IC50 in the HCT116 cytotoxic activity assay
Procedure: (§1) Human tumor cells, e.g., HCT116 cells, are seeded in a 96-well plate at 3.0×10^3 cells/well and grown in 100 μl of RPMI complete media (Invitrogen Corporation, Grand Island, N.Y.) containing 10% fetal bovine serum (Hyclone, Logan, Utah) and 10 mM HEPES and at 37° C. for 16 h in an incubator with 5% CO2. To each well, 50 μl of additional growth media containing 20 μM to 60 nM concentrations of compound with 0.2% DMSO is added. Cells are grown for another 72 h at 37° C. 20 μl of Alamar Blue (Trek Diagnostic Systems, Inc., Cleveland, Ohio) reagent is added to each well and incubated for 4 h at 37° C. Plates are read in a SpectraMax Gemini (Molecular Devices, CA) with 544 nm excitation and 590 nm emission wavelength. IC50 values are determined by linear regression analysis of log drug concentration versus percent inhibition.

HCT116 cells [2] = tested on: HCT116 cells
Procedure: as §1

For COc1cc(-c2cc(Nc3ccc(Oc4ccnc(C#N)c4)cc3)nc(N)n2)ccc1N [Example 179, 4-(4-{[2-amino-6-(4-amino-3-methoxyphenyl)pyrimidin-4-yl]a-mino}phenoxy)pyridine-2-carbonitrile trifluoroacetate], which IC50 (HCT116 cells [1]) is on record?
The IC50 was ≤ 500 nM.

Nc1nc(Nc2ccc(Oc3ccnc(C(=O)N4CC[C@@H](O)C4)c3)cc2)cc(-c2ccccc2)n1 [Example 82, (3R)-1-[(4-{4-[(2-amino-6-phenylpyrimidin-4-yl)amino]phenoxy}pyridin-2-yl)carbonyl] pyrrolidin-3-ol trifluoroacetate (salt)] was tested. Which IC50 (HCT116 cells [1]) did it give?
The IC50 was 500 to 2000 nM.

How did the IC50 (HCT116 cells [1]) turn out when CC(C)S(=O)(=O)NCc1cc(Oc2ccc(Nc3cc(-c4ccccc4)nc(N)n3)cc2)ccn1 [Example 95, N-[(4-{4-[(2-amino-6-phenylpyrimidin-4-yl)amino]phenoxy}pyridin-2-yl)methyl]propane-2-sulfonamide trifluoroacetate] was run?
Its IC50 is ≤ 500 nM.

With NC(=O)NCc1cc(Oc2ccc(Nc3cc(-c4ccccc4)nc(N)n3)cc2)ccn1 [Example 101, N-[(4-{4-[(2-amino-6-phenylpyrimidin-4-yl)amino]phenoxy}pyridin-2-yl)methyl]urea trifluoroacetate] as the compound, how does the IC50 (HCT116 cells [1]) read?
Its IC50 is 500 to 2000 nM.

With COC[C@@H]1CCCN1C(=O)c1cc(Oc2ccc(Nc3cc(-c4ccccc4)nc(N)n3)cc2)ccn1 [Example 81, N4*-{4-[(2-{[(2S)-2-(methoxymethylpyrrolidin-1-yl]carbonyl}pyridin-4-yl)oxy]phenyl}-6-phenylpyrimidine-2,4-diamine trifluoroacetate] as the compound, how does the IC50 (HCT116 cells [1]) read?
Its IC50 is > 2000 nM.

For NCC(=O)Nc1ccc(-c2cc(Nc3ccc(Oc4ccnc(C(F)(F)F)c4)cc3)nc(N)n2)cc1 [Example 151, N-(4-{2-amino-6-[(4-{[2-(trifluoromethyl)pyridin-4-yl]oxy}phe-nyl)amino]pyrimidin-4-yl}phenyl)glycinamide trifluoroacetate], which IC50 (HCT116 cells [1]) is on record?
Its IC50 is ≤ 500 nM.

Nc1nc(Nc2ccc(Oc3ccnc(CNS(=O)(=O)c4ccccc4)c3)cc2)cc(-c2ccccc2)n1 [Example 96, N-[(4-{4-[(2-amino-6-phenylpyrimidin-4-yl)amino]phenoxy}pyridin-2-yl)methyl]benzenesulfonamide trifluoroacetate] was tested. Which IC50 (HCT116 cells [1]) did it give?
Its IC50 is ≤ 500 nM.

With COc1ccc(S(=O)(=O)NCc2cc(Oc3ccc(Nc4cc(-c5ccccc5)nc(N)n4)cc3)ccn2)cc1 [Example 97, N-[(4-{4-[(2-amino-6-phenylpyrimidin-4-yl)amino]phenoxy}pyridin-2-yl)methyl]-4-methoxybenzenesulfonamide trifluoroacetate] as the compound, how does the IC50 (HCT116 cells [1]) read?
The IC50 was ≤ 500 nM.

NCCCC(=O)Nc1ccc(-c2cc(Nc3ccc(Oc4ccnc(C(F)(F)F)c4)cc3)nc(N)n2)cc1 [Example 152, 4-amino-N-(4-{2-amino-6-[(4-{[2-(trifluoromethyl)pyridin-4-yl]oxy}phe-nyl)amino]pyrimidin-4-yl}phenyl)butanamide trifluoroacetate] was tested. Which IC50 (HCT116 cells [1]) did it give?
The IC50 was 500 to 2000 nM.

With N#CCc1ccc(-c2cc(Nc3cccc(Oc4ccnc(C(N)=O)c4)c3)nc(N)n2)cc1 [Example 294, 4-[3-({2-amino-6-[4-(cyanomethyl)phenyl]pyrimidin-4-yl}amino)phenoxy] pyridine-2-carboxamide] as the compound, how does the IC50 (HCT116 cells [2]) read?
The IC50 was 500 to 2000 nM.

NCc1cc(Oc2ccc(Nc3cc(-c4ccccc4)nc(N)n3)cc2)ccn1 [Example 39, N^4-(4-{[2-(aminomethyl)pyridin-4-yl]oxy}phenyl)-6-phenylpyrimidine-2,4-diamine] was tested. Which IC50 (HCT116 cells [1]) did it give?
Its IC50 is ≤ 500 nM.

How did the IC50 (HCT116 cells [1]) turn out when CCS(=O)(=O)NCc1cc(Oc2ccc(Nc3cc(-c4ccccc4)nc(N)n3)cc2)ccn1 [Example 94, N-[(4-{4-[(2-amino-6-phenylpyrimidin-4-yl)amino]phenoxy}pyridin-2-yl)methyl]ethanesulfonamide trifluoroacetate] was run?
The IC50 was ≤ 500 nM.

For Nc1nc(Nc2ccc(Oc3ccnc(CNS(=O)(=O)c4ccc(F)cc4)c3)cc2)cc(-c2ccccc2)n1 [Example 98, N-[(4-{4-[(2-amino-6-phenylpyrimidin-4-yl)amino]phenoxy}pyridin-2-yl)methyl]-4-fluorobenzenesulfonamide trifluoroacetate], which IC50 (HCT116 cells [1]) is on record?
The IC50 was ≤ 500 nM.

Which IC50 (HCT116 cells [1]) does the source give for Nc1nc(Nc2ccc(Oc3ccnc(NCc4ccccc4)c3)cc2)cc(-c2ccccc2)n1 [Example 132, N4*-(4-{[2-(benzylamino)pyridin-4-yl]oxy}phenyl)-6-phenyl-pyrimidine-2,4-diamine trifluoroacetate] here?
The IC50 was 500 to 2000 nM.

With Cn1cnc(S(=O)(=O)NCc2cc(Oc3ccc(Nc4cc(-c5ccccc5)nc(N)n4)cc3)ccn2)c1 [Example 93, N-[(4-{4-[(2-amino-6-phenylpyrimidin-4-yl)amino]phenoxy}pyridin-2-yl)methyl]-1-methyl-1H-imidazole-4-sulfonamide trifluoroacetate] as the compound, how does the IC50 (HCT116 cells [1]) read?
The IC50 was > 2000 nM.
